Measurements taken from PubChem BioAssay (NCI).
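96-well plates; 48 h exposure; 5 concentrations. Endpoints by linear interpolation between flanking doses. Not reached: highest tested concentration assigned. The concentration for 50% growth inhibition is given as GI50. TGI marks complete inhibition of growth.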

Key:
Test in all cases: NCI anticancer screen, dose series, 48 h
786-0 renal = test system: 786-0 renal
A498 renal = test system: A498 renal
A549 NSCLC = test system: A549 NSCLC
ACHN renal = test system: ACHN renal
BT-549 breast = test system: BT-549 breast
CAKI-1 renal = test system: CAKI-1 renal
CCRF-CEM leukemia = test system: CCRF-CEM leukemia
COLO 205 colon = test system: COLO 205 colon
DU-145 prostate = test system: DU-145 prostate
EKVX NSCLC = test system: EKVX NSCLC
HCC-2998 colon = test system: HCC-2998 colon
HCT-116 colon = test system: HCT-116 colon
HCT-15 colon = test system: HCT-15 colon
HL-60(TB) leukemia = test system: HL-60(TB) leukemia
HOP-62 NSCLC = test system: HOP-62 NSCLC
HOP-92 NSCLC = test system: HOP-92 NSCLC
HT29 colon = test system: HT29 colon
IGROV1 ovarian = test system: IGROV1 ovarian
K-562 leukemia = test system: K-562 leukemia
KM12 colon = test system: KM12 colon
LOX IMVI melanoma = test system: LOX IMVI melanoma
M14 melanoma = test system: M14 melanoma
MALME-3M melanoma = test system: MALME-3M melanoma
MCF7 breast = test system: MCF7 breast
MDA-MB-231 breast = test system: MDA-MB-231 breast
MDA-MB-435 = test system: MDA-MB-435
MOLT-4 leukemia = test system: MOLT-4 leukemia
NCI-H226 lung = test system: NCI-H226 lung
NCI-H23 lung = test system: NCI-H23 lung
NCI-H460 lung = test system: NCI-H460 lung
NCI-H522 lung = test system: NCI-H522 lung
NCI/ADR-RES ovarian = test system: NCI/ADR-RES ovarian
OVCAR-3 ovarian = test system: OVCAR-3 ovarian
OVCAR-4 ovarian = test system: OVCAR-4 ovarian
OVCAR-5 ovarian = test system: OVCAR-5 ovarian
OVCAR-8 ovarian = test system: OVCAR-8 ovarian
PC-3 prostate = test system: PC-3 prostate
RXF 393 renal = test system: RXF 393 renal
SF-268 CNS = test system: SF-268 CNS
SF-295 CNS = test system: SF-295 CNS
SF-539 CNS = test system: SF-539 CNS
SK-MEL-2 melanoma = test system: SK-MEL-2 melanoma
SK-MEL-28 melanoma = test system: SK-MEL-28 melanoma
SK-MEL-5 melanoma = test system: SK-MEL-5 melanoma
SK-OV-3 ovarian = test system: SK-OV-3 ovarian
SN12C renal = test system: SN12C renal
SNB-19 CNS = test system: SNB-19 CNS
SNB-75 CNS = test system: SNB-75 CNS
SW-620 colon = test system: SW-620 colon
T-47D breast = test system: T-47D breast
TK-10 renal = test system: TK-10 renal
U251 CNS = test system: U251 CNS
UACC-257 melanoma = test system: UACC-257 melanoma
UACC-62 melanoma = test system: UACC-62 melanoma
UO-31 renal = test system: UO-31 renal

Structure (SMILES): Nc1ccccc1C#C/C=C\C#Cc1ccccc1N
- GI50 (786-0 renal): 13.7 µM
- TGI (786-0 renal): 42.9 µM
- GI50 (A498 renal): 13.6 µM
- TGI (A498 renal): 36 µM
- GI50 (A549 NSCLC): 41.5 µM
- TGI (A549 NSCLC): > 100 µM
- GI50 (ACHN renal): 19.9 µM
- TGI (ACHN renal): 50.9 µM
- GI50 (BT-549 breast): 11.5 µM
- TGI (BT-549 breast): 41.2 µM
- GI50 (CAKI-1 renal): 6.86 µM
- TGI (CAKI-1 renal): 39 µM
- GI50 (CCRF-CEM leukemia): 3.93 µM
- TGI (CCRF-CEM leukemia): 32.4 µM
- GI50 (COLO 205 colon): 31.3 µM
- TGI (COLO 205 colon): > 100 µM
- GI50 (DU-145 prostate): 26.8 µM
- TGI (DU-145 prostate): > 100 µM
- GI50 (EKVX NSCLC): 17 µM
- TGI (EKVX NSCLC): 69.5 µM
- GI50 (HCC-2998 colon): 0.0333 µM
- TGI (HCC-2998 colon): 24.4 µM
- GI50 (HCT-116 colon): 4.15 µM
- TGI (HCT-116 colon): 19.1 µM
- GI50 (HCT-15 colon): 14.1 µM
- TGI (HCT-15 colon): 33.3 µM
- GI50 (HL-60(TB) leukemia): 4.18 µM
- TGI (HL-60(TB) leukemia): 33.7 µM
- GI50 (HOP-62 NSCLC): 12.1 µM
- TGI (HOP-62 NSCLC): 32.3 µM
- GI50 (HOP-92 NSCLC): 1.2 µM
- TGI (HOP-92 NSCLC): 12.2 µM
- GI50 (HT29 colon): 32 µM
- TGI (HT29 colon): > 100 µM
- GI50 (IGROV1 ovarian): 34.6 µM
- TGI (IGROV1 ovarian): > 100 µM
- GI50 (K-562 leukemia): 0.583 µM
- TGI (K-562 leukemia): 14.2 µM
- GI50 (KM12 colon): 3.26 µM
- TGI (KM12 colon): 27.6 µM
- GI50 (LOX IMVI melanoma): 17.9 µM
- TGI (LOX IMVI melanoma): 33.7 µM
- GI50 (M14 melanoma): 5.04 µM
- TGI (M14 melanoma): 22.7 µM
- GI50 (MALME-3M melanoma): 7.86 µM
- TGI (MALME-3M melanoma): 32.9 µM
- GI50 (MCF7 breast): 9.98 µM
- TGI (MCF7 breast): > 100 µM
- GI50 (MDA-MB-231 breast): 12.5 µM
- TGI (MDA-MB-231 breast): 30.4 µM
- GI50 (MDA-MB-435): 1.43 µM
- TGI (MDA-MB-435): 4.58 µM
- GI50 (MOLT-4 leukemia): 1.04 µM
- TGI (MOLT-4 leukemia): 17.3 µM
- GI50 (NCI-H226 lung): 19.6 µM
- TGI (NCI-H226 lung): 53.8 µM
- GI50 (NCI-H23 lung): 18.6 µM
- TGI (NCI-H23 lung): 62.9 µM
- GI50 (NCI-H460 lung): 6.51 µM
- TGI (NCI-H460 lung): 80.4 µM
- GI50 (NCI-H522 lung): 16.3 µM
- TGI (NCI-H522 lung): 44.5 µM
- GI50 (NCI/ADR-RES ovarian): 2.26 µM
- TGI (NCI/ADR-RES ovarian): 7.95 µM
- GI50 (OVCAR-3 ovarian): 1.72 µM
- TGI (OVCAR-3 ovarian): 9.1 µM
- GI50 (OVCAR-4 ovarian): 34.2 µM
- TGI (OVCAR-4 ovarian): > 100 µM
- GI50 (OVCAR-5 ovarian): 10.9 µM
- TGI (OVCAR-5 ovarian): 40.7 µM
- GI50 (OVCAR-8 ovarian): 28.1 µM
- TGI (OVCAR-8 ovarian): 74.7 µM
- GI50 (PC-3 prostate): 7.39 µM
- TGI (PC-3 prostate): 29.1 µM
- GI50 (RXF 393 renal): 16.8 µM
- TGI (RXF 393 renal): 47.6 µM
- GI50 (SF-268 CNS): 10.7 µM
- TGI (SF-268 CNS): 37.9 µM
- GI50 (SF-295 CNS): 7.71 µM
- TGI (SF-295 CNS): 25.4 µM
- GI50 (SF-539 CNS): 10.1 µM
- TGI (SF-539 CNS): 26.6 µM
- GI50 (SK-MEL-2 melanoma): 16.3 µM
- TGI (SK-MEL-2 melanoma): 60.7 µM
- GI50 (SK-MEL-28 melanoma): 28.7 µM
- TGI (SK-MEL-28 melanoma): 82 µM
- GI50 (SK-MEL-5 melanoma): 1.95 µM
- TGI (SK-MEL-5 melanoma): 17.5 µM
- GI50 (SK-OV-3 ovarian): 23.2 µM
- TGI (SK-OV-3 ovarian): 54.9 µM
- GI50 (SN12C renal): 21.8 µM
- TGI (SN12C renal): 54.4 µM
- GI50 (SNB-19 CNS): 48.9 µM
- TGI (SNB-19 CNS): > 100 µM
- GI50 (SNB-75 CNS): 29.4 µM
- TGI (SNB-75 CNS): > 100 µM
- GI50 (SW-620 colon): 2.91 µM
- TGI (SW-620 colon): 18.4 µM
- GI50 (T-47D breast): 26.9 µM
- TGI (T-47D breast): > 100 µM
- GI50 (TK-10 renal): 8.33 µM
- TGI (TK-10 renal): 36.1 µM
- GI50 (U251 CNS): 13.9 µM
- TGI (U251 CNS): 32.2 µM
- GI50 (UACC-257 melanoma): 41.3 µM
- TGI (UACC-257 melanoma): > 100 µM
- GI50 (UACC-62 melanoma): 11.4 µM
- TGI (UACC-62 melanoma): 27.5 µM
- GI50 (UO-31 renal): 11.4 µM
- TGI (UO-31 renal): 34.1 µM
